Data from patent publication US8124601B2, “Compounds for the treatment of Hepatitis C” (Bristol-Myers Squibb Company, priority 2007, dated 2012).
Where two headings read alike, the source gives them in different places.

What was measured:
HCV NS5B = target: T1, HCV NS5B (Hepatitis C virus genotype 1b, UniProt Q9WMX2); experiment: Modified HCV NS5B RdRp enzyme assay (preincubation protocol); assay type: biochemical
T1 construct: The protein was expressed with an 18 amino acid C-terminal truncation to enhance the solubility; made in house; host or cells: E. coli BL21(DE3)
T1 sequence (Q9WMX2 2420-2992): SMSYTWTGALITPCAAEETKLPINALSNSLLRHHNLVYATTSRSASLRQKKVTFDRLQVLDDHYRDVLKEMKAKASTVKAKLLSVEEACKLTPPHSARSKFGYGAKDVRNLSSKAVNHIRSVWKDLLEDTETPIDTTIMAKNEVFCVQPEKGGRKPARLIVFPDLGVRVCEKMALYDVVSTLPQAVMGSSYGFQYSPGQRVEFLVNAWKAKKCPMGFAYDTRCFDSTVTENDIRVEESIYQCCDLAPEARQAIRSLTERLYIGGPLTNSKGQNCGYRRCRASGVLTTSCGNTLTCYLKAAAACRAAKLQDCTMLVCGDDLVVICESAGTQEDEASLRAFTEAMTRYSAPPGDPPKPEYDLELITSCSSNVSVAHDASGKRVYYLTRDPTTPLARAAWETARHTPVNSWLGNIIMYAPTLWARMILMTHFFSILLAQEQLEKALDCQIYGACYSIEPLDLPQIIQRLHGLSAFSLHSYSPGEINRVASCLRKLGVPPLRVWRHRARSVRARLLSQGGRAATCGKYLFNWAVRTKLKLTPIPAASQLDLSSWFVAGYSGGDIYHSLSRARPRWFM
Method: HCV NS5B RdRp cloning, expression, and purification. The cDNA encoding the NS5B protein of HCV, genotype 1b, was cloned into the pET21a expression vector. The protein was expressed with an 18 amino acid C-terminal truncation to enhance the solubility. The E. coli competent cell line BL21(DE3) was used for expression of the protein. Cultures were grown at 37° C. for ˜4 hours until the cultures reached an optical density of 2.0 at 600 nm. The cultures were cooled to 20° C. and induced with 1 mM IPTG. Fresh ampicillin was added to a final concentration of 50 μg/ml and the cells were grown overnight at 20° C.
Cell pellets (3 L) were lysed for purification to yield 15-24 mgs of purified NS5B. The lysis buffer consisted of 20 mM Tris-HCl, pH 7.4, 500 mM NaCl, 0.5% triton X-100, 1 mM DTT, 1 mM EDTA, 20% glycerol, 0.5 mg/ml lysozyme, 10 mM MgCl2, 15 ug/ml deoxyribonuclease I, and Complete TM protease inhibitor tablets (Roche). After addition of the lysis buffer, frozen cell pellets were resuspended using a tissue homogenizer. To reduce the viscosity of the sample, aliquots of the lysate were sonicated on ice using a microtip attached to a Branson sonicator. The sonicated lysate was centrifuged at 100,000×g for 1 hr at 4° C. and filtered through a 0.2 μm filter unit (Corning).
The protein was purified using two sequential chromatography steps: Heparin sepharose CL-6B and polyU sepharose 4B (Pharmacia). The chromatography buffers were identical to the lysis buffer but contained no lysozyme, deoxyribonuclease I, MgCl2 or protease inhibitor and the NaCl concentration of the buffer was adjusted according to the requirements for charging the protein onto the column. Each column was eluted with a NaCl gradient which varied in length from 5-50 column volumes depending on the column type. After the final chromatography step, the resulting purity of the enzyme is >90% based on SDS-PAGE analysis. The enzyme was aliquoted and stored at −80° C.
Standard HCV NS5B RdRp enzyme assay. HCV RdRp genotype 1b assays were run in a final volume of 60 μl in 96 well plates (Corning 3600). The assay buffer is composed of 20 mM Hepes, pH 7.5, 2.5 mM KCl, 2.5 mM MgCl2, 1 mM DTT, 1.6 U RNAse inhibitor (Promega N2515), 0.01 mg/ml BSA (Sigma B6917), and 2% glycerol. All compounds were serially diluted (3-fold) in DMSO and diluted further in water such that the final concentration of DMSO in the assay was 2%. HCV RdRp genotype 1b enzyme was used at a final concentration of 28 nM. A polyA template was used at 6 nM, and a biotinylated oligo-dT12 primer was used at 180 nM final concentration. Template was obtained commercially (Amersham 27-4110). Biotinylated primer was prepared by Sigma Genosys. 3H-UTP was used at 0.6 μCi (0.29 μM total UTP). Reactions were initiated by the addition of enzyme, incubated at 30° C. for 60 min, and stopped by adding 25 μl of 50 mM EDTA containing SPA beads (4 μg/μl, Amersham RPNQ 0007). Plates were read on a Packard Top Count NXT after >1 hr incubation at room temperature.
Modified HCV NS5B RdRp enzyme assay. A modified enzyme assay was performed essentially as described for the standard enzyme assay except for the following: The biotinylated oligo dT12 primer was precaptured on streptavidin-coated SPA beads by mixing primer and beads in assay buffer and incubating at room temperature for one hour. Unbound primer was removed after centrifugation. The primer-bound beads were resuspended in 20 mM Hepes buffer, pH 7.5 and used in the assay at final concentrations of 20 nM primer and 0.67 μg/μl beads. Order of addition in the assay: enzyme (1.75 nM) was added to diluted compound followed by the addition of a mixture of template (0.36 nM), 3H-UTP (0.6 μCi, 0.29 μM), and primer-bound beads, to initiate the reaction; concentrations given are final. Reactions were allowed to proceed for 4 hours at 30° C.
IC50 values for compounds were determined using seven different [I]. […]

HCV replicon cells = experiment: HCV replicon FRET assay; assay type: cell-based
Method: FRET Assay Preparation. The HCV FRET screening assay was performed in 96-well cell culture plates. The FRET peptide (Anaspec, Inc.) (Taliani et al., Anal. Biochem. 1996, 240, 60-67) contains a fluorescence donor, EDANS, near one end of the peptide and an acceptor, DABCYL, near the other end. The fluorescence of the peptide is quenched by […] resonance energy transfer (RET) between the donor and the acceptor, but as the NS3 protease cleaves the peptide the products are released from RET quenching and the fluorescence of the donor becomes apparent. The assay reagent was made as follows: 5× cell Luciferase cell culture lysis reagent from Promega (#E153A) diluted to 1× with dH2O, NaCl added to 150 mM final, the FRET peptide diluted to 20 μM final from a 2 mM stock.
To prepare plates, HCV replicon cells, with or without a Renilla luciferase reporter gene, were trypsinized and plated in a 96-well plate with titrated test compounds added in columns 3 through 12; columns 1 and 2 contained a control compound (HCV control inhibitor), and the bottom row contained cells with DMSO only. The plates were then placed in a CO2 incubator at 37° C.
Assays. Subsequent to addition of the test compounds described above (FRET Assay Preparation), at various times the plate was removed and Alamar blue solution (Trek Diagnostics, #00-100) was added to measure cellular toxicity. After reading in a Cytoflour 4000 instrument (PE Biosystems), plates were rinsed with PBS and then used for FRET assay by the addition of 30 ul of the FRET peptide assay reagent described above (FRET Assay Preparation) per well. The plate was then placed into the Cytoflour 4000 instrument which had been set to 340 excite/490 emission, automatic mode for up to 20 cycles and the plate read in a kinetic mode. Typically, the signal to noise using an endpoint analysis after the reads was at least three-fold. Alternatively, after Alamar blue reading, plates were rinsed with PBS, then used for luciferase assay using the Promega Dual-Glo Luciferase Assay System or the Promega EnduRen Live Cell Substrate assay.
Compound analysis was performed by quantification of the relative HCV replicon inhibition and the relative cytotoxicity values. To calculate cytoxicity values, the average Alamar Blue fluorescence signals from the control wells were set as 100% non-toxic. The individual signals in each of the compound test wells were then divided by the average control signal and multiplied by 100% to determine […]. To calculate the HCV replicon inhibition values, an average background value was obtained from the two wells containing the highest amount of HCV control inhibitor at the end of the assay period. These numbers were similar to those obtained from naïve Huh-7 cells. The background numbers were then subtracted from the average signal obtained from the control wells and this number was used as 100% activity. The individual signals in each of the compound test wells were then divided by the averaged control values after background subtraction and multiplied by 100% to determine percent activity. EC50 values were calculated as the concentration which caused a 50% reduction in FRET or luciferase activity. The two numbers generated for the compound plate, percent cytoxicity and percent activity, were used to determine compounds of interest for further analysis.

Row | SMILES | IC50 (HCV NS5B) | EC50 (HCV replicon cells; Hepatitis C virus) | EC50 (HCV replicon cells)
1 | CCCS(=O)(=O)NC(=O)c1ccc2c(C3CCCCC3)c3n(c2c1)CC1(C(=O)N2CCNC4(CCCC4)C2)CC1c1cc(OC)ccc1-3 (stereo not drawn) | 0.00458 to 0.5 µM | 0.00458 to 0.5 µM | 
2 | COc1ccc2c(c1)C1CC1(C(=O)N1CCCC3(CCN(C)C3=O)C1)Cn1c-2c(C2CCCCC2)c2ccc(C(=O)NS(=O)(=O)C(C)C)cc21 (stereo not drawn) [drawing 21] | 0.00458 to 0.5 µM | 0.00458 to 0.5 µM | 
3 | CCCS(=O)(=O)NC(=O)c1ccc2c(C3CCCCC3)c3n(c2c1)CC1(C(=O)N2CCNC4(CCCCC4)C2)CC1c1cc(OC)ccc1-3 (stereo not drawn) | 0.00458 to 0.5 µM | 0.00458 to 0.5 µM | 
4 | COc1ccc2c(c1)C1CC1(C(=O)N1CCC3(CCCN3C(=O)OC(C)(C)C)CC1)Cn1c-2c(C2CCCCC2)c2ccc(C(=O)NS(=O)(=O)C(C)C)cc21 (stereo not drawn) | 0.00458 to 0.5 µM | 0.00458 to 0.5 µM | 
5 | COc1ccc2c(c1)C1CC1(C(=O)N1CCNC3(CCCC3)C1)Cn1c-2c(C2CCCCC2)c2ccc(C(=O)NS(=O)(=O)C(C)C)cc21 (stereo not drawn) | 0.00458 to 0.5 µM | 0.00458 to 0.5 µM | 
6 | COc1ccc2c(c1)C1CC1(C(=O)N1CCN(C)C3(CCCCC3)C1)Cn1c-2c(C2CCCCC2)c2ccc(C(=O)NS(=O)(=O)C(C)C)cc21 (stereo not drawn) | 0.00458 to 0.5 µM | 0.00458 to 0.5 µM | 
7 | CCCS(=O)(=O)NC(=O)c1ccc2c(C3CCCCC3)c3n(c2c1)CC1(C(=O)N2CCC4(CCCN4C)CC2)CC1c1cc(OC)ccc1-3 (stereo not drawn) | 0.00458 to 0.5 µM | 0.00458 to 0.5 µM | 
8 | COc1ccc2c(c1)C1CC1(C(=O)N1CCN(C)C3(CCCC3)C1)Cn1c-2c(C2CCCCC2)c2ccc(C(=O)NS(=O)(=O)C(C)C)cc21 (stereo not drawn) | 0.00458 to 0.5 µM | 0.00458 to 0.5 µM | 
9 | CCCS(=O)(=O)NC(=O)c1ccc2c(C3CCCCC3)c3n(c2c1)CC1(C(=O)N2CCC4(CCCN4C(C)=O)CC2)CC1c1cc(OC)ccc1-3 (stereo not drawn) | 0.00458 to 0.5 µM | 0.00458 to 0.5 µM | 
10 | COc1ccc2c(c1)C1CC1(C(=O)N1CCCC3(CCN(C)C3=O)C1)Cn1c-2c(C2CCCCC2)c2ccc(C(=O)NS(=O)(=O)C(C)C)cc21 (stereo not drawn) [drawing 22] | 0.00458 to 0.5 µM |  | 0.00458 to 0.5 µM
11 | COc1ccc2c(c1)C1CC1(C(=O)N1CCC3(CCCN3)CC1)Cn1c-2c(C2CCCCC2)c2ccc(C(=O)NS(=O)(=O)C(C)C)cc21 (stereo not drawn) | 0.00458 to 0.5 µM | 0.00458 to 0.5 µM | 
12 | CCCS(=O)(=O)NC(=O)c1ccc2c(C3CCCCC3)c3n(c2c1)CC1(C(=O)N2CCCC24CCN(C)CC4)CC1c1cc(OC)ccc1-3 (stereo not drawn) | 0.00458 to 0.5 µM | 0.00458 to 0.5 µM | 
13 | COc1ccc2c(c1)C1CC1(C(=O)N1CCCC3(CCN(C)C3)C1)Cn1c-2c(C2CCCCC2)c2ccc(C(=O)NS(=O)(=O)C(C)C)cc21 (stereo not drawn) [drawing 24] | 0.00458 to 0.5 µM |  | 0.00458 to 0.5 µM
14 | COc1ccc2c(c1)C1CC1(C(=O)N1CCC3(CCN(C(=O)OC(C)(C)C)C3)C1)Cn1c-2c(C2CCCCC2)c2ccc(C(=O)NS(=O)(=O)C(C)C)cc21 (stereo not drawn) | 0.00458 to 0.5 µM | 0.00458 to 0.5 µM | 
15 | CCCS(=O)(=O)NC(=O)c1ccc2c(C3CCCCC3)c3n(c2c1)CC1(C(=O)N2CCC4(CCCN4C(=O)OC(C)(C)C)CC2)CC1c1cc(OC)ccc1-3 (stereo not drawn) | 0.00458 to 0.5 µM | 0.00458 to 0.5 µM | 
16 | COc1ccc2c(c1)C=C(C(=O)N1CCCC13CCN(C)CC3)Cn1c-2c(C2CCCCC2)c2ccc(C(=O)NS(=O)(=O)C(C)C)cc21 | 0.00458 to 0.5 µM | 0.00458 to 0.5 µM | 
17 | COc1ccc2c(c1)C1CC1(C(=O)N1CCC3(CCNC3)C1)Cn1c-2c(C2CCCCC2)c2ccc(C(=O)NS(=O)(=O)C(C)C)cc21 (stereo not drawn) | 0.00458 to 0.5 µM | 0.00458 to 0.5 µM | 
18 | COc1ccc2c(c1)C1CC1(C(=O)N1CCCC3(CCN(C)C3)C1)Cn1c-2c(C2CCCCC2)c2ccc(C(=O)NS(=O)(=O)C(C)C)cc21 (stereo not drawn) [drawing 23] | 0.00458 to 0.5 µM | 0.00458 to 0.5 µM | 
19 | COc1ccc2c(c1)C1CC1(C(=O)N1CCNC3(CCCCC3)C1)Cn1c-2c(C2CCCCC2)c2ccc(C(=O)NS(=O)(=O)C(C)C)cc21 (stereo not drawn) | 0.00458 to 0.5 µM | 0.00458 to 0.5 µM | 
20 | CCCS(=O)(=O)NC(=O)c1ccc2c(C3CCCCC3)c3n(c2c1)CC1(C(=O)N2CCCC4(CCN(C)C4)C2)CC1c1cc(OC)ccc1-3 (stereo not drawn) [drawing 25] | 0.00458 to 0.5 µM | 0.00458 to 0.5 µM | 
21 | CCCS(=O)(=O)NC(=O)c1ccc2c(C3CCCCC3)c3n(c2c1)CC1(C(=O)N2CCC4(CCCN4)CC2)CC1c1cc(OC)ccc1-3 (stereo not drawn) | 0.00458 to 0.5 µM | 0.00458 to 0.5 µM | 
22 | CCCS(=O)(=O)NC(=O)c1ccc2c(C3CCCCC3)c3n(c2c1)CC1(C(=O)N2CCN(C)C4(CCCC4)C2)CC1c1cc(OC)ccc1-3 (stereo not drawn) | 0.00458 to 0.5 µM | 0.00458 to 0.5 µM | 
23 | COc1ccc2c(c1)C1CC1(C(=O)N1CCC3(CCCN3C)CC1)Cn1c-2c(C2CCCCC2)c2ccc(C(=O)NS(=O)(=O)C(C)C)cc21 (stereo not drawn) | 0.00458 to 0.5 µM | 0.00458 to 0.5 µM | 
24 | COc1ccc2c(c1)C1CC1(C(=O)N1CCCC3(CCN(C)C3=O)C1)Cn1c-2c(C2CCCCC2)c2ccc(C(=O)NS(=O)(=O)C3CC3)cc21 (stereo not drawn) | 0.00458 to 0.5 µM | 0.00458 to 0.5 µM | 
25 | CCCS(=O)(=O)NC(=O)c1ccc2c(C3CCCCC3)c3n(c2c1)CC1(C(=O)N2CCCC4(CCN(C)C4)C2)CC1c1cc(OC)ccc1-3 (stereo not drawn) [drawing 26] | 0.00458 to 0.5 µM |  | 0.00458 to 0.5 µM
26 | COc1ccc2c(c1)C1CC1(C(=O)N1CCCC13CCN(C)CC3)Cn1c-2c(C2CCCCC2)c2ccc(C(=O)NS(=O)(=O)C(C)C)cc21 (stereo not drawn) | 0.00458 to 0.5 µM | 0.00458 to 0.5 µM | 
27 | COc1ccc2c(c1)C1CC1(C(=O)N1CCC3(CCCN3C(C)=O)CC1)Cn1c-2c(C2CCCCC2)c2ccc(C(=O)NS(=O)(=O)C(C)C)cc21 (stereo not drawn) | 0.00458 to 0.5 µM | 0.00458 to 0.5 µM | 
